Test results: patent US20170152245A1 (National Taiwan University, priority 2015, published 2017)

Tested on: human platelet suspension
Assay: U46619-induced platelet aggregation in human platelet suspension
Type: cell-based
Details: Homo sapiens, Platelet, U46619-induced aggregation, platelet suspension; read-out: P.S(U46619) IC50
Method: Human platelet suspension (PS) was prepared according to the method described previously. Briefly, blood sample, freshly obtained from healthy volunteers who had taken no medications during the preceding 2 weeks, was treated with acid citrate/dextrose (ACD) in a volume ratio of 9:1. After centrifugation at 120 g, 25° C. for 9 min, platelet-rich plasma was transferred into another plastic tube and incubated with heparin (6.4 U/ml) as well as prostaglandin E1 (1 μM). Platelets were spun down by centrifugation at 500 g, 25° C. for 8 min and subsequently washed two times with Tyrode solution (NaH2PO4 0.4 mM; NaCl 136.9 mM; KCl […]; NaHCO3 11.9 mM; CaCl2 2 mM; MgCl2 2.1 mM; glucose 11.1 mM; BSA 3.5 mg/ml; pH 7.35-7.4). The washed platelets were finally suspended in Tyrode's solution and the platelet count was adjusted to 3.75×10^8 platelets/ml. For platelet-rich plasma (PRP) preparation, whole blood was anticoagulated with 1/10 vol of sodium citrate (3.8%, w/v) and centrifuged at 150 g, 25° C. for 9 min.
Platelet aggregation was measured turbidimetrically with a Lumi-aggregometer (Payton Scientific) at 37° C. under stirring condition (900 rpm). Platelet suspensions were prewarmed to 37° C. for 2 min in a silicone-treated glass cuvette. Nstpbp5185 was added 3 min before the addition of platelet-aggregation inducers. The extent of platelet aggregation was determined by recording the increase of light transmission relative to that of control (maximal aggregation, as 100%) for 6 min after the addition of inducer. The final volume and platelet count for measuring platelet aggregation were 500 μl and 3×10^8/ml, respectively.

Row | Structure (SMILES) | IC50 [µM]
1 | COc1ccc2c(c1)nc(-c1ccc(C)o1)n2Cc1cccc(C)c1 [Example 27b, 5-methoxy-1-(3-methylbenzyl)-2-(5-methyl-2-furyl)benzimidazole] | 26.9
2 | Cc1ccc(-c2nc3ccc(C(=O)c4ccccc4)cc3n2Cc2ccccc2C)o1 [Example 83, 6-benzoyl-1-(2-methylbenzyl)-2-(5-methyl-2-furyl)benzimidazole] | > 50
3 | Cc1ccc(Cn2c(-c3ccc(C)o3)nc3cc(Cl)ccc32)cc1 [Example 51b, 5-chloro-1-(4-methylbenzyl)-2-(5-methyl-2-furyl)benzimidazole] | 62.8
4 | COc1ccc(Cn2c(-c3ccc(C)o3)nc3ccc(C(=O)c4ccccc4)cc32)cc1 [Example 76, 6-benzoyl-1-(4-methoxybenzyl)-2-(5-methyl-2-furyl)benzimidazole] | > 50
5 | Cc1ccc(-c2nc3cc(F)ccc3n2Cc2ccccc2Cl)o1 [Example 31a, 5-fluoro-1-(2-chlorobenzyl)-2-(5-methyl-2-furyl)benzimidazole] | 22.7
6 | Cc1ccc(-c2nc3cc(Cl)c(Cl)cc3n2Cc2cccc([N+](=O)[O-])c2)o1 [Example 56, 5,6-dichloro-1-(3-nitrobenzyl)-2-(5-methyl-2-furyl)benzimidazole] | 27
7 | Cc1ccc(-c2nc3cc(Cl)ccc3n2Cc2ccccc2Cl)o1 [Example 45a, 5-chloro-1-(2-chlorobenzyl)-2-(5-methyl-2-furyl)benzimidazole] | 46.3
8 | Cc1cccc(Cn2c(-c3ccc(C)o3)nc3cc(Cl)ccc32)c1 [Example 52a, 5-chloro-1-(3-methylbenzyl)-2-(5-methyl-2-furyl)benzimidazole] | 29.9
9 | Cc1ccc(-c2nc3ccc(C(=O)c4ccccc4)cc3n2Cc2ccc(Cl)cc2)o1 [Example 73, 6-Benzoyl-1-(4-chlorobenzyl)-2-(5-methyl-2-furyl)benzimidazole] | > 50
10 | Cc1ccc(-c2nc3ccc(C(=O)c4ccccc4)cc3n2Cc2ccccc2F)o1 [Example 80, 6-benzoyl-1-(2-fluorobenzyl)-2-(5-methyl-2-furyl)benzimidazole] | > 50
11 | COc1ccc2nc(-c3ccc(C)o3)n(Cc3cccc(C)c3)c2c1 [Example 27a, 6-methoxy-1-(3-methylbenzyl)-2-(5-methyl-2-furyl)benzimidazole] | 19.2
12 | Cc1ccc(-c2nc3cc(Cl)ccc3n2Cc2ccc(F)cc2)o1 [Example 46b, 5chloro-1-(4-fluorobenzyl)-2-(5-methyl-2-furyl)benzimidazole] | 9.59

More lines, now with the values ahead:

Row | IC50 [µM] | Structure (SMILES)
13 | 5.13 | Cc1ccc(-c2nc3cc(Cl)c(Cl)cc3[nH]2)o1 [Example 54, 5,6-dichloro-2-(5-methyl-2-furyl)benzimidazole]
14 | 5.22 | Cc1cccc(Cn2c(-c3ccc(C)o3)nc3ccc(Cl)cc32)c1 [Example 52b, 6-chloro-1-(3-methylbenzyl)-2-(5-methyl-2-furyl)benzimidazole]
15 | 3.09 | Cc1ccc(-c2nc3ccc(F)cc3n2Cc2cccc(Cl)c2)o1 [Example 32b, 6-fluoro-1-(3-chlorobenzyl)-2-(5-methyl-2-furyl)benzimidazole]
16 | 6.01 | Cc1ccc(-c2nc3cc(Cl)ccc3n2Cc2ccccc2C)o1 [Example 53a, 5-chloro-1-(2-methylbenzyl)-2-(5-methyl-2-furyl)benzimidazole]
17 | 3.55 | Cc1ccc(-c2nc3ccc(Cl)cc3n2Cc2ccccc2)o1 [Example 42a, 1-benzyl-6-chloro-2-(5-methyl-2-furyl)benzimidazole]
18 | 9.56 | Cc1ccc(-c2nc3cc(Cl)c(Cl)cc3n2Cc2ccc(Cl)cc2)o1 [Example 58, 5,6-Dichloro-1-(4-chlorobenzyl)-2-(5-methyl-2-furyl)benzimidazole]
19 | 4.26 | Cc1ccc(-c2nc3cc(F)ccc3n2Cc2cccc(Cl)c2)o1 [Example 32a, 5-fluoro-1-(3-chlorobenzyl)-2-(5-methyl-2-furyl)benzimidazole]
20 | 6.7 | Cc1ccc(-c2nc3cc(Cl)ccc3n2Cc2ccccc2F)o1 [Example 48a, 5-chloro-1-(2-fluorobenzyl)-2-(5-methyl-2-furyl)benzimidazole]
